Assay results: patent US20030068615A1, “Polypeptides that bind HIV gp120 and related nucleic acids, antibodies, compositions, and methods of use” (priority 1999, published 2003)
Where “and” joins values, the source holds several entries; their conditions need not be identical. Equal values may be shown once. Read-outs that look alike come from different tables or passages of the source.

Molecular target: HIV-1LAI envelope gp120 (Human immunodeficiency virus type 1 group M subtype B, UniProt P03377)
Assay type: binding
Details: for number of radioactive decays (counts) counted: human CD4 21-mer scan, empty control 2075; for Counts per 20′ Average-background: CCR5 18-mer scan; for Relative % of Control: mean of two syntheses and binding experiments ± average deviation, wild-type = 100%
[1] = Panel B, 15-mers and 18-mers of CD4, empty control 575
[2] = CXCR4 18-mer scan, background subtracted, empty control 0
[3] = CXCR4 18-mer scan, empty control 412
[4] = Panel C, 15-mers and 18-mers of CD4, empty control 556
[5] = Panel G, alanine replacements and serial truncations (Z) of CD4 polypeptides, empty control 580
[6] = radiolabeled HIV-1LAI gp120, background subtracted
[7] = STRL33 18-mer scan, background subtracted, first of two count columns
[8] = STRL33 18-mer scan, background subtracted, second of two count columns
[9] = Panel E, 9-mers and 12-mers of CD4, empty control 571
[10] = Panel D, 9-mers and 12-mers of CD4, empty control […]

Sequence: DTHLLQGQSLTLTLE
- COUNTS of radiolabeled gp120 retained [1]: 1622 counts

Sequence: FREENANFNKIFLPTIYS [CXCR4 segment 29-46]
- radioactive counts recorded in twenty minutes [2]: 51 counts
- radioactive counts recorded in twenty minutes [3]: 463 counts

Sequence: VTQDPKLQMGKKLPLHLTLPQ [human CD4 266-286]
- number of radioactive decays (counts) counted: 2075 counts

Sequence: LSKGKRGGHSSVSTESES
- radioactive counts recorded in twenty minutes [2]: 185 counts
- radioactive counts recorded in twenty minutes [3]: 597 counts

Sequence: GEQVEFSFPLAFTVE
- COUNTS of radiolabeled gp120 retained [4]: 4656 counts
- COUNTS of radiolabeled gp120 retained [5]: 18856 counts and 18867 counts and 20691 counts and 17662 counts and 19190 counts and 18219 counts

Sequence: LILINCKRLKSMTDIYLL [CCR5 segment 53-70]
- Counts per 20′ Average-background [6]: 2 counts per 20′

Sequence: DSSQEEHQAFLQFSKVFL [STRL33 segment 17-34]
- radioactive counts recorded in twenty minutes [7]: 869.5 counts
- radioactive counts recorded in twenty minutes [8]: 2152.5 counts

Sequence: FKTSAQHALTSVSRGSSL
- radioactive counts recorded in twenty minutes [2]: 173 counts
- radioactive counts recorded in twenty minutes [3]: 585 counts

Sequence: HLLQGQSLTLTLESP
- COUNTS of radiolabeled gp120 retained [1]: 1277 counts

Sequence: IVYKKEGEQVEFSFPLAF
- COUNTS of radiolabeled gp120 retained [4]: 5382 counts

Sequence: IIISKLSHSKGHQKRKAL
- radioactive counts recorded in twenty minutes [2]: 157 counts
- radioactive counts recorded in twenty minutes [3]: 569 counts

Sequence: ASSIVYKKE
- COUNTS of radiolabeled gp120 retained [9]: 600 counts

Sequence: IYDINYYTSEPCQKINVK [CCR5 segment 9-26]
- Counts per 20′ Average-background [6]: 228 counts per 20′

Sequence: SSIVYKKEGEQVEFSFPLAFT
- COUNTS of radiolabeled gp120 retained (Panel A, 21-mers of CD4, empty control 515 and 617): 28068 counts

Sequence: NSIYLVISIFYHKLQSLT [STRL33 segment 49-66]
- radioactive counts recorded in twenty minutes [7]: 1255.5 counts
- radioactive counts recorded in twenty minutes [8]: 1378.5 counts

Sequence: EEAQLLVFGLTANSD
- COUNTS of radiolabeled gp120 retained (Panel F, sequential alanine replacements of CD4 polypeptides, duplicate series, empty control 569): 18124 counts and 16296 counts

Sequence: QVEFSFPLAFTVEKLTGS
- COUNTS of radiolabeled gp120 retained [4]: 736 counts

Sequence: KVEFKIDIVVLAFQKASS
- COUNTS of radiolabeled gp120 retained [4]: 1011 counts

Sequence: ILKTLLRCRNEKKRHRAV
- Counts per 20′ Average-background [6]: 19 counts per 20′

Sequence: MDYQVSSPIYDINAYTSE [CCR5 (1-18) variant Y14A]
- Relative % of Control (CCR5 (1-18) alanine variants): 15 ± 0.3%
- percentage of binding of mutant polypeptide compared to wild-type polypeptide, gp120 (CCR5 alanine mutant peptide, radiolabeled HIV-1LAI gp120): 14.6%

Sequence: IVVLAFQKASSI
- COUNTS of radiolabeled gp120 retained [9]: 548 counts

Sequence: QWKSSEDNSKTFSASHNV
- radioactive counts recorded in twenty minutes [7]: 464.5 counts
- radioactive counts recorded in twenty minutes [8]: 533.5 counts

Sequence: TVLQNQKKVEFKIDI
- COUNTS of radiolabeled gp120 retained [4]: 587 counts

Sequence: FPLAFTVEKLTGSGE
- COUNTS of radiolabeled gp120 retained [4]: 556 counts

Sequence: LVFFQKHIAKRFCKCCSI
- Counts per 20′ Average-background [6]: 76 counts per 20′

Sequence: NSDTHLLQGQSLTLTLES
- COUNTS of radiolabeled gp120 retained [1]: 1726 counts

Sequence: ESNIKVLPTWSTPVQPMALIV [human CD4 381-401]
- number of radioactive decays (counts) counted: 1992 counts

Sequence: DIVVLAFQKASSIVY
- COUNTS of radiolabeled gp120 retained [4]: 776 counts

Sequence: EDYGFSSFNDSSQEEHQA
- Binding Results For Window Length (counts bound-background), 9 (STRL33 amino terminus, 9-mer starting at the first residue of the printed sequence, background subtracted): 953 counts
- Binding Results For Window Length (counts bound-background), 12 (STRL33 amino terminus, 12-mer starting at the first residue of the printed sequence, background subtracted): 817 counts
- Binding Results For Window Length (counts bound-background), 15 (STRL33 amino terminus, 15-mer starting at the first residue of the printed sequence, background subtracted): 1152 counts
- Binding Results For Window Length (counts bound-background), 18 (STRL33 amino terminus, 18-mer starting at the first residue of the printed sequence, background subtracted): 548 counts

Sequence: SKTFSASHNVEATSMFQL [STRL33 segment 325-342]
- radioactive counts recorded in twenty minutes [7]: 1524.5 counts
- radioactive counts recorded in twenty minutes [8]: 1239.5 counts

Sequence: ILAFFACWLPYYIGISID [CXCR4 segment 245-262]
- radioactive counts recorded in twenty minutes [2]: 184 counts
- radioactive counts recorded in twenty minutes [3]: 596 counts

Sequence: FFIILLTIDRYLAVVHAV [CCR5 segment 117-]
- Counts per 20′ Average-background [6]: 77 counts per 20′

Sequence: QVEFSFPLAFTVEKL
- COUNTS of radiolabeled gp120 retained [4]: 2047 counts

Sequence: LTANSDTHL
- COUNTS of radiolabeled gp120 retained [10]: 596 counts

Sequence: QGNFPLIIKNLK
- COUNTS of radiolabeled gp120 retained [10]: 533 counts

Sequence: EGEQVEFSFPLA
- COUNTS of radiolabeled gp120 retained [9]: 1456 counts

Sequence: GEQVEFSFPLAATVE
- COUNTS of radiolabeled gp120 retained [5]: 10130 counts and 9572 counts

Sequence: FLPCMYLVVFVCGLVGNS [STRL33 segment 33-50]
- radioactive counts recorded in twenty minutes [7]: 605.5 counts
- radioactive counts recorded in twenty minutes [8]: 372.5 counts

Sequence: DIVVLAFQKASSIVYKKE
- COUNTS of radiolabeled gp120 retained [4]: 660 counts

Sequence: ANSDTHLLQGQS
- COUNTS of radiolabeled gp120 retained [10]: 559 counts

Sequence: WITFDLKNKEVSVKRVTQDPK
- number of radioactive decays (counts) counted: 2126 counts

Sequence: SIVYKKEGEQVEFSF
- COUNTS of radiolabeled gp120 retained [4]: 651 counts

Sequence: VVLAFQKASSIV
- COUNTS of radiolabeled gp120 retained [9]: 567 counts

Sequence: MEGISIYTSDAYTEEMGS
- Relative % of Control (CXCR4 (1-18) alanine variants): 38 ± 0.4%
